Test results from patent publication US11292787B2, “Five-membered-fused-six-membered aza-aromatic ring compound, preparation method thereof, pharmaceutical composition and application thereof” (XIAMEN UNIVERSITY, priority 2017, dated 2022).

Molecular target: T1, K-Ras protein (Homo sapiens, UniProt P01116, G12V)
T1 construct: in SW620 cells, compound I-a-1 can effectively enhance the degradation of endogenous K-RAS-G12V proteins; endogenous in cells; host or cells: SW-620
Experiment: K-Ras protein degradation rate by Western blot in SW-620 cells
Assay type: cell-based
Conditions: 10 μM, SW-620 cells, 24 h, Western blot, relative to DMSO control; read-out: Degradation rate of compounds at 10 μM on Ras protein (%)
Method: Inhibitory activity of compounds on K-RAS was evaluated by the degradation rate of protein level of administration group relative to control group (Cell Rep 2014, 7, 871-882).
The specific method was as follows:
1. Cell plating: SW-620 cells in logarithmic growth phase were inoculated into a 24-well plate at 2×10^4/well, and cultured in a 37° C., 5% CO2 incubator.
2. Administering drug to cells: after 24 h of culture, various drug stocks […]; the original solution in the 24-well plate was discarded, to which was added the obtained drug solution, with the DMSO group as the blank control; after the drug solution was added, the 24-well plate was transferred to the 37° C. CO2 incubator to continue the culture.
3. Detection of K-Ras protein level: after 24 h of administration and culture, the liquid in the well was discarded, the cells were routinely collected, and rinsed twice with 1×PBS, a cell lysate was added to extract the total cellular protein, and the protein concentration was determined by BCA method. 30 μg of the protein sample was taken for SDS-polyacrylamide gel electrophoretic transmembrane, the membrane was blocked sequentially, incubated with K-Ras antibody (1:1000) and internal reference antibody β-actin (1:2000) respectively overnight at 4° C., rinsed with TBST for 5 min×3 times, then incubated with the addition of the corresponding horseradish peroxidase-labeled secondary antibody (1:5000) for 1-2 h, and rinsed with TBST for 5 min×3 times. Finally, chemiluminescence image was acquired using Image Lab software.
4. Calculation of single-point K-Ras protein degradation rate: quantitative and calibration analysis of K-Ras and β-actin were conducted using Image-Lab software, and then the intracellular K-Ras degradation rate was calculated according to the following formula: single-point K-Ras protein degradation rate (%)=(control group−administration group)/control group×100%. The drug with degradation rate ≥20% was selected for soft agar experiment.

T1 sequence (P01116 1-188 isoform P01116-2 G12V): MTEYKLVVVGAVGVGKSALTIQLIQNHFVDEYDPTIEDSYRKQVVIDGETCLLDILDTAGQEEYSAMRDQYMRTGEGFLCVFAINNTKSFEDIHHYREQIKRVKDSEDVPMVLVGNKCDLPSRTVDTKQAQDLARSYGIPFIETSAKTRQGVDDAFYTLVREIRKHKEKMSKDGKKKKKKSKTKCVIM

Row | SMILES | percent K-Ras protein degradation (single point) at 10 µM
1 | O=C(NCc1cccc(C(F)(F)F)c1)c1csc(-c2n[nH]c3ccccc23)c1 [I-a-8] | 20%
2 | O=C(NCc1cc(C(F)(F)F)ccc1F)c1csc(-c2n[nH]c3ccccc23)c1 [I-a-9] | 30%
3 | O=C(Nc1ccccc1)c1csc(-c2n[nH]c3ccccc23)c1 [I-a-11] | 30%
4 | O=C(NCc1c(F)cccc1Cl)c1c[nH]c(-c2n[nH]c3ccccc23)c1 [I-b-1] | 50%
5 | O=C(Nc1ccccc1)c1c[nH]c(-c2n[nH]c3ccccc23)c1 [I-b-2] | 56%
6 | O=C(NCc1c(F)cccc1Cl)c1coc(-c2n[nH]c3ccccc23)c1 [I-c-1] | 11%
7 | O=C(NCc1c(F)cccc1Cl)c1cccc(-c2n[nH]c3ccccc23)c1 [I-d-1] | 2%
8 | O=C(Nc1ccccc1)c1ccc(-c2n[nH]c3ccccc23)cc1 [I-e-2] | 12%
9 | O=C(NCc1c(F)cccc1Cl)c1ccc(-c2n[nH]c3ccccc23)s1 [I-f-1] | 20%
10 | O=C(Nc1ccccc1)c1ccc(-c2n[nH]c3ccccc23)s1 [I-f-2] | 25%
11 | O=C(NCc1c(F)cccc1Cl)c1ccc(-c2n[nH]c3ccccc23)[nH]1 [I-g-1] | 30%
12 | O=C(NCc1c(F)cccc1Cl)c1coc(-c2c[nH]c3ncccc23)c1 [II-b-1] | 52%
13 | O=C(Nc1ccccc1)c1coc(-c2c[nH]c3ncccc23)c1 [II-b-2] | 50%
14 | O=C(NCc1c(F)cccc1Cl)c1ccc(-c2c[nH]c3ncccc23)s1 [II-e-1] | 15%
15 | O=C(Nc1ccccc1)c1csc(-c2n[nH]c3ncccc23)c1 [III-a-2] | 9%
16 | O=C(NCc1cccc(C(F)(F)F)c1)c1csc(-c2n[nH]c3ncccc23)c1 [III-a-3] | 60%
17 | O=C(NCc1cc(C(F)(F)F)ccc1F)c1csc(-c2n[nH]c3ncccc23)c1 [III-a-4] | 60%
18 | O=C(NCc1c(F)cccc1Cl)c1coc(-c2n[nH]c3ncccc23)c1 [III-b-1] | 35%
19 | O=C(Nc1c(F)cccc1Cl)c1cccc(-c2n[nH]c3ncccc23)c1 [III-c-3] | 16%
20 | O=C(Nc1ccccc1)c1ccc(-c2n[nH]c3ncccc23)cc1 [III-d-2] | 18%
21 | O=C(Nc1c(F)cccc1Cl)c1ccc(-c2n[nH]c3ncccc23)cc1 [III-d-3] | 27%
22 | O=C(NCc1c(F)cccc1Cl)c1ccc(-c2n[nH]c3ncccc23)s1 [III-e-1] | 40%

Row | SMILES | percent K-Ras protein degradation (single point) at 10 µM
23 | O=C(Nc1ccccc1)c1ccc(-c2n[nH]c3ncccc23)s1 [III-e-2] | 40%
24 | O=C(NCc1c(F)cccc1Cl)c1c[nH]c(-c2n[nH]c3ncccc23)c1 [III-f-1] | 60%
25 | O=C(NCc1c(F)cccc1F)c1c[nH]c(-c2n[nH]c3ncccc23)c1 [III-f-3] | 6%
26 | O=C(NCc1ccc(Cl)c(Cl)c1)c1c[nH]c(-c2n[nH]c3ncccc23)c1 [III-f-4] | 19%
27 | O=C(NCc1ccc(Cl)cc1)c1c[nH]c(-c2n[nH]c3ncccc23)c1 [III-f-6] | 15%
28 | O=C(Nc1ccccc1)c1c[nH]c(-c2n[nH]c3ncccc23)c1 [III-f-10] | 18%
29 | O=C(Nc1cccc(C(F)(F)F)c1)c1c[nH]c(-c2n[nH]c3ncccc23)c1 [III-f-11] | 13%
30 | O=C(Nc1cccc(F)c1)c1c[nH]c(-c2n[nH]c3ncccc23)c1 [III-f-13] | 16%
31 | CC(C)Oc1ccc(NC(=O)c2c[nH]c(-c3n[nH]c4ncccc34)c2)cc1 [III-f-15] | 14%
32 | Cc1ccc(NC(=O)c2c[nH]c(-c3n[nH]c4ncccc34)c2)cc1 [III-f-16] | 15%
33 | COc1ccc(NC(=O)c2c[nH]c(-c3n[nH]c4ncccc34)c2)cc1 [III-f-17] | 19%
34 | O=C(Nc1ccc(OC(F)(F)F)cc1)c1c[nH]c(-c2n[nH]c3ncccc23)c1 [III-f-18] | 15%
35 | O=C(NCCc1ccccc1)c1c[nH]c(-c2n[nH]c3ncccc23)c1 [III-f-24] | 13%
36 | O=C(NC1CCCCC1)c1c[nH]c(-c2n[nH]c3ncccc23)c1 [III-f-27] | 14%
37 | N#Cc1ccc(CNC(=O)c2c[nH]c(-c3n[nH]c4ncccc34)c2)cc1 [III-f-31] | 45%
38 | N#Cc1cccc(CNC(=O)c2c[nH]c(-c3n[nH]c4ncccc34)c2)c1 [III-f-32] | 60%
39 | O=C(NCc1ccc(C(F)(F)F)cc1)c1c[nH]c(-c2n[nH]c3ncccc23)c1 [III-f-34] | 60%
40 | O=C(NCc1ccccc1O)c1c[nH]c(-c2n[nH]c3ncccc23)c1 [III-f-35] | 50%
41 | O=C(NCc1ccccn1)c1c[nH]c(-c2n[nH]c3ncccc23)c1 [III-f-37] | 35%
42 | O=C(NCc1cccc(OC(F)(F)F)c1)c1c[nH]c(-c2n[nH]c3ncccc23)c1 [III-f-38] | 50%
43 | O=C(NCc1ccccc1OC(F)(F)F)c1c[nH]c(-c2n[nH]c3ncccc23)c1 [III-f-39] | 60%
44 | O=C(NCc1ccc(OC(F)(F)F)cc1)c1c[nH]c(-c2n[nH]c3ncccc23)c1 [III-f-40] | 30%

Row | SMILES | percent K-Ras protein degradation (single point) at 10 µM
45 | O=C(NCc1cccc(Br)c1)c1c[nH]c(-c2n[nH]c3ncccc23)c1 [III-f-41] | 60%
46 | O=C(NCc1ccccc1Br)c1c[nH]c(-c2n[nH]c3ncccc23)c1 [III-f-42] | 70%
47 | O=C(NCc1ccc(Br)cc1)c1c[nH]c(-c2n[nH]c3ncccc23)c1 [III-f-43] | 40%
48 | O=C(NCc1cccc(F)c1)c1c[nH]c(-c2n[nH]c3ncccc23)c1 [III-f-44] | 70%
49 | O=C(NCc1ccccc1F)c1c[nH]c(-c2n[nH]c3ncccc23)c1 [III-f-45] | 50%
50 | O=C(NCc1cccc(Cl)c1)c1c[nH]c(-c2n[nH]c3ncccc23)c1 [III-f-46] | 60%
51 | O=C(NCc1ccccc1Cl)c1c[nH]c(-c2n[nH]c3ncccc23)c1 [III-f-47] | 50%
52 | O=C(NCc1cccc([N+](=O)[O-])c1)c1c[nH]c(-c2n[nH]c3ncccc23)c1 [III-f-48] | 60%
53 | Nc1cccc(CNC(=O)c2c[nH]c(-c3n[nH]c4ncccc34)c2)c1 [III-f-49] | 50%
54 | Cc1cccc(CNC(=O)c2c[nH]c(-c3n[nH]c4ncccc34)c2)c1 [III-f-50] | 40%
55 | Cc1ccccc1CNC(=O)c1c[nH]c(-c2n[nH]c3ncccc23)c1 [III-f-51] | 70%
56 | Cc1ccc(CNC(=O)c2c[nH]c(-c3n[nH]c4ncccc34)c2)cc1 [III-f-52] | 35%
57 | COc1cccc(CNC(=O)c2c[nH]c(-c3n[nH]c4ncccc34)c2)c1 [III-f-53] | 50%
58 | COc1ccccc1CNC(=O)c1c[nH]c(-c2n[nH]c3ncccc23)c1 [III-f-54] | 50%
59 | COc1ccc(CNC(=O)c2c[nH]c(-c3n[nH]c4ncccc34)c2)cc1 [III-f-55] | 25%
60 | O=C(NCc1cc(F)ccc1F)c1c[nH]c(-c2n[nH]c3ncccc23)c1 [III-f-56] | 70%
61 | O=C(NCc1ccc(F)c(C(F)(F)F)c1)c1c[nH]c(-c2n[nH]c3ncccc23)c1 [III-f-57] | 70%
62 | O=C(NCc1cc(F)cc(C(F)(F)F)c1)c1c[nH]c(-c2n[nH]c3ncccc23)c1 [III-f-58] | 75%
63 | O=C(NCc1cc(C(F)(F)F)cc(C(F)(F)F)c1)c1c[nH]c(-c2n[nH]c3ncccc23)c1 [III-f-59] | 60%
64 | O=C(NCc1cccc(C(F)(F)F)c1F)c1c[nH]c(-c2n[nH]c3ncccc23)c1 [III-f-60] | 65%
65 | O=C(NCc1ccc(Cl)c(C(F)(F)F)c1)c1c[nH]c(-c2n[nH]c3ncccc23)c1 [III-f-61] | 50%
66 | O=C(NCc1cc(C(F)(F)F)ccc1F)c1c[nH]c(-c2n[nH]c3ncccc23)c1 [III-f-62] | 70%
